Patent publication US9994547B2, “Heteroarylamide inhibitors of TBK1” (Takeda Pharmaceutical Company Limited, priority 2014, dated 2018)

Each compound was assayed against Full length human TBK1 (Homo sapiens (Human), UniProt Q9UHD2) (assay: Inhibition of TBK1 Enzyme (Example A)). Settings: -log(IC50), IC50 molar; 3 nM TBK1, 25 μM ATP, 60 min RT.
Type: biochemical
Summary of the method: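 Full-length N-His human TBK1 from Sf9 baculovirus was tested with 11-point 2.5-fold dilutions (1% DMSO) in Hepes pH 7.4, MgCl2, EDTA, Brij, DTT. After 60 min RT and EDTA quench, microfluidic conversion was fitted and reported as pIC50.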

Chain of Full length human TBK1 (Q9UHD2 whole entry): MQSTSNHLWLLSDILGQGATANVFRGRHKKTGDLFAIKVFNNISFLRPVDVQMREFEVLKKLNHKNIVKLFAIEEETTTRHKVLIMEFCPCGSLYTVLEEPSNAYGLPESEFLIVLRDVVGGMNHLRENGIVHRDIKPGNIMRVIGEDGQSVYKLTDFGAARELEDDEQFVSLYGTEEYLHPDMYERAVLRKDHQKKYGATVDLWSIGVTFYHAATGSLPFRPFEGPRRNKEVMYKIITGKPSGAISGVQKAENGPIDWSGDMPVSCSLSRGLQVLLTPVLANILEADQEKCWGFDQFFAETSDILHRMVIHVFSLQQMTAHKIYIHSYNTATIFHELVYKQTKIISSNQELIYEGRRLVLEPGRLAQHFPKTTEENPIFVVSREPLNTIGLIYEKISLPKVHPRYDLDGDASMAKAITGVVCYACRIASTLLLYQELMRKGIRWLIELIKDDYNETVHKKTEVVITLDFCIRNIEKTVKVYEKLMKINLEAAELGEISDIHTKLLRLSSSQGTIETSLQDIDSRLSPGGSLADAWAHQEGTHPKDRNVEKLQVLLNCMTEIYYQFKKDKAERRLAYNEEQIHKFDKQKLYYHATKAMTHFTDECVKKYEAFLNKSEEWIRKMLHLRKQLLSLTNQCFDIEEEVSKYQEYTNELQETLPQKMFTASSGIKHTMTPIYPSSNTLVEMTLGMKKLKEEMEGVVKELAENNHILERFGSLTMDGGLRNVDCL

In order of rising “TBK1 Inhibition (pIC50)” value:
1. CN(Cc1cnccn1)C(=O)CNc1cc(-c2cnc(NC(=O)C3CC3)cn2)cnc1C#N [Example 76, N-(5-(6-cyano-5-((2-(methyl(pyrazin-2-ylmethyl)amino)-2-oxoethyl)amino)pyridin-3-yl)pyrazin-2-yl)cyclopropanecarboxamide]  5.3
2. C[C@H](Nc1cc(-c2cnc(NC(=O)C3CC3)cn2)cnc1C#N)C(=O)N(C)c1cccnc1 [Example 74, (S)-N-(5-(6-cyano-5-((1-(methyl(pyridin-3-yl)amino)-1-oxopropan-2-yl)amino)pyridin-3-yl)pyrazin-2-yl)cyclopropanecarboxamide]  5.5
3. N#Cc1ncc(-c2cnc(NC(=O)C3CC3)cn2)cc1NCC(=O)N(CCCO)CC(F)(F)F [Example 90, N-(5-(6-cyano-5-((2-((3-hydroxypropyl)(2,2,2-trifluoroethyl)amino)-2-oxoethyl)amino)pyridin-3-yl)pyrazin-2-yl)cyclopropanecarboxamide]  5.6
4. C[C@H](Nc1cc(-c2cnc(NC(=O)C3CC3)cn2)cnc1C#N)C(=O)N1CCO[C@H]1C(F)(F)F [Example 61, N-(5-(6-cyano-5-((S)-1-oxo-1-((S)-2-(trifluoromethyl)oxazolidin-3-yl)propan-2-ylamino)pyridin-3-yl)pyrazin-2-yl)cyclopropanecarboxamide]  6.0
5. C[C@H](Nc1cc(-c2cnc(NC(=O)C3CC3)cn2)cnc1C#N)C(=O)N(C)CCN(C)C [Example 67, (S)-N-(5-(6-cyano-5-((1-((2-(dimethylamino)ethyl)(methyl)amino)-1-oxopropan-2-yl)amino)pyridin-3-yl)pyrazin-2-yl)cyclopropanecarboxamide]  6.3
6. CCNC(=O)CNc1cc(-c2cnc(NC(=O)C3CC3)cn2)ccc1C#N [Example 124, N-(5-(4-cyano-3-((2-(ethylamino)-2-oxoethyl)amino)phenyl)pyrazin-2-yl)cyclopropanecarboxamide]  6.5
7. N#Cc1ncc(-c2cnc(NC(=O)C3CC3)cn2)cc1NCC(=O)N1CCOC(C(F)(F)F)C1 (stereo not drawn) [Example 100, N-(5-(6-cyano-5-((2-oxo-2-(2-(trifluoromethyl)morpholino)ethyl)amino)pyridin-3-yl)pyrazin-2-yl)cyclopropanecarboxamide]  6.5
8. CN(C(=O)CNc1cc(-c2cnc(NC(=O)C3CC3)cn2)cnc1C#N)C1CCOC1 (stereo not drawn) [Example 71, N-(5-(6-cyano-5-((2-(methyl(tetrahydrofuran-3-yl)amino)-2-oxoethyl)amino)pyridin-3-yl)pyrazin-2-yl)cyclopropanecarboxamide]  6.6
9. C[C@H](Nc1cc(-c2cnc(NC(=O)C3CC3)cn2)ccc1C#N)C(=O)N1CCC1 [Example 9, (S)-N-(5-(3-((1-(azetidin-1-yl)-1-oxopropan-2-yl)amino)-4-cyanophenyl)pyrazin-2-yl)cyclopropanecarboxamide]  6.7
10. N#Cc1ccc(-c2cnc(NC(=O)C3CC3)cn2)cc1NCC(=O)N1CCC(O)C1 (stereo not drawn) [Example 27, N-(5-(4-cyano-3-((2-(3-hydroxypyrrolidin-1-yl)-2-oxoethyl)amino)phenyl)pyrazin-2-yl)cyclopropanecarboxamide]  6.9
11. C[C@@H](O)[C@@H](Nc1cc(-c2cnc(NC(=O)C3CC3)cn2)cnc1C#N)C(=O)N(C)C [Example 37, N-(5-(6-cyano-5-(((2R,3R)-1-(dimethylamino)-3-hydroxy-1-oxobutan-2-yl)amino)pyridin-3-yl)pyrazin-2-yl)cyclopropanecarboxamide]  6.9
12. C[C@H](Nc1cc(-c2cnc(NC(=O)C3CC3)cn2)cnc1C#N)C(=O)NCC(C)(F)F [Example 117, (S)-N-(5-(6-cyano-5-((1-((2,2-difluoropropyl)amino)-1-oxopropan-2-yl)amino)pyridin-3-yl)pyrazin-2-yl)cyclopropanecarboxamide]  7.0
13. C[C@@H](Nc1cc(-c2cnc(NC(=O)C3CC3)cn2)ccc1C#N)C(=O)N(C)C [Example 2, (R)-N-(5-(4-cyano-3-((1-(dimethylamino)-1-oxopropan-2-yl)amino)phenyl)pyrazin-2-yl)cyclopropanecarboxamide]  7.1
14. CC[C@H](Nc1cc(-c2cnc(NC(=O)C3CC3)cn2)cnc1C#N)C(=O)N(C)CCO [Example 70, (S)-N-(5-(6-cyano-5-((1-((2-hydroxyethyl)(methyl)amino)-1-oxobutan-2-yl)amino)pyridin-3-yl)pyrazin-2-yl)cyclopropanecarboxamide]  7.1
15. N#CCN(CCO)C(=O)CNc1cc(-c2cnc(NC(=O)C3CC3)cn2)cnc1C#N [Example 87, N-(5-(6-cyano-5-((2-((cyanomethyl)(2-hydroxyethyl)amino)-2-oxoethyl)amino)pyridin-3-yl)pyrazin-2-yl)cyclopropanecarboxamide]  7.2
16. N#Cc1ncc(-c2cnc(NC(=O)C3CC3)cn2)cc1NCC(=O)N1CCOCC1C#N (stereo not drawn) [Example 63, N-(5-(6-cyano-5-((2-(3-cyanomorpholino)-2-oxoethyl)amino)pyridin-3-yl)pyrazin-2-yl)cyclopropanecarboxamide]  7.2
17. CN(C)C(=O)[C@H](CO)Nc1cc(-c2cnc(NC(=O)C3CC3)cn2)cnc1C#N [Example 57, (S)-N-(5-(6-cyano-5-((1-(dimethylamino)-3-hydroxy-1-oxopropan-2-yl)amino)pyridin-3-yl)pyrazin-2-yl)cyclopropanecarboxamide]  7.2
18. CC(C)C(Nc1cc(-c2cnc(NC(=O)C3CC3)cn2)ccc1C#N)C(=O)N(C)C (stereo not drawn) [Example 5, N-(5-(4-cyano-3-((1-(dimethylamino)-3-methyl-1-oxobutan-2-yl)amino)phenyl)pyrazin-2-yl)cyclopropanecarboxamide]  7.3
19. CN(CC(F)(F)F)C(=O)CNc1cc(-c2cnc(NC(=O)C3CC3)cn2)cnc1C#N [Example 40, N-(5-(6-cyano-5-((2-(methyl(2,2,2-trifluoroethyl)amino)-2-oxoethyl)amino)pyridin-3-yl)pyrazin-2-yl)cyclopropanecarboxamide]  7.5
20. N#Cc1ncc(-c2cnc(NC(=O)C3CC3)cn2)cc1NCC(=O)N1CCC[C@@H]1C#N [Example 45, (R)-N-(5-(6-cyano-5-((2-(2-cyanopyrrolidin-1-yl)-2-oxoethyl)amino)pyridin-3-yl)pyrazin-2-yl)cyclopropanecarboxamide]  7.5
21. N#Cc1ncc(-c2cnc(NC(=O)C3CC3)cn2)cc1NCC(=O)N1C[C@H](CO)C[C@H]1C(F)(F)F [Example 113, N-(5-(6-cyano-5-((2-((2S,4R)-4-(hydroxymethyl)-2-(trifluoromethyl)pyrrolidin-1-yl)-2-oxoethyl)amino)pyridin-3-yl)pyrazin-2-yl)cyclopropanecarboxamide]  7.6
22. C[C@H](Nc1cc(-c2cnc(NC(=O)C3CC3)cn2)cnc1C#N)C(=O)N1CCC[C@@H]1C#N [Example 55, N-(5-(6-cyano-5-(((S)-1-((R)-2-cyanopyrrolidin-1-yl)-1-oxopropan-2-yl)amino)pyridin-3-yl)pyrazin-2-yl)cyclopropanecarboxamide]  7.6
23. CC[C@H](Nc1cc(-c2cnc(NC(=O)C3CC3)cn2)cnc1C#N)C(=O)N(C)CCF [Example 56, (S)-N-(5-(6-cyano-5-((1-((2-fluoroethyl)(methyl)amino)-1-oxobutan-2-yl)amino)pyridin-3-yl)pyrazin-2-yl)cyclopropanecarboxamide]  7.7
24. CC(Nc1cc(-c2cnc(NC(=O)C3CC3)cn2)cnc1C#N)C(=O)N(C)CC#N (stereo not drawn) [Example 43, N-(5-(6-cyano-5-((1-((cyanomethyl)(methyl)amino)-1-oxopropan-2-yl)amino)pyridin-3-yl)pyrazin-2-yl)cyclopropanecarboxamide]  7.7
25. CCN(C)C(=O)[C@H](C)Nc1cc(-c2cnc(NC(=O)C3CC3)cn2)cnc1C#N [Example 112, (S)-N-(5-(6-cyano-5-((1-(ethyl(methyl)amino)-1-oxopropan-2-yl)amino)pyridin-3-yl)pyrazin-2-yl)cyclopropanecarboxamide]  7.7
26. COCCN(CC(F)F)C(=O)CNc1cc(-c2cnc(NC(=O)C3CC3)cn2)cnc1C#N [Example 82, N-(5-(6-cyano-5-((2-((2,2-difluoroethyl)(2-methoxyethyl)amino)-2-oxoethyl)amino)pyridin-3-yl)pyrazin-2-yl)cyclopropanecarboxamide]  7.8
27. C[C@H](Nc1cc(-c2cnc(NC(=O)C3CC3)cn2)cnc1C#N)C(=O)N(C)[C@@H](C)C#N [Example 89, N-(5-(6-cyano-5-(((S)-1-(((S)-1-cyanoethyl)(methyl)amino)-1-oxopropan-2-yl)amino)pyridin-3-yl)pyrazin-2-yl)cyclopropanecarboxamide]  7.9
28. C[C@H](Nc1cc(-c2cnc(NC(=O)C3CC3)cn2)cnc1C#N)C(=O)N(C)CCF [Example 54, (S)-N-(5-(6-cyano-5-((1-((2-fluoroethyl)(methyl)amino)-1-oxopropan-2-yl)amino)pyridin-3-yl)pyrazin-2-yl)cyclopropanecarboxamide]  8.0
29. CCN(C)C(=O)[C@H](C)Nc1cc(-c2cnc(NC(=O)C3CC3)cn2)ccc1C#N [Example 12, (S)-N-(5-(4-cyano-3-((1-(ethyl(methyl)amino)-1-oxopropan-2-yl)amino)phenyl)pyrazin-2-yl)cyclopropanecarboxamide]  8.0
30. CC(Nc1cc(-c2cnc(NC(=O)C3CC3)cn2)cnc1C#N)C(=O)N(C)CC(F)F (stereo not drawn) [Example 46, N-(5-(6-cyano-5-((1-((2,2-difluoroethyl)(methyl)amino)-1-oxopropan-2-yl)amino)pyridin-3-yl)pyrazin-2-yl)cyclopropanecarboxamide]  8.0
